Test results published in patent US8796292B2, “Selective antibacterials for clostridium difficile infections” (GLSynthesis Inc., priority 2009, dated 2014).
In brackets after ≈: the same amount, converted by molar mass.

What follows are compounds tested on L. acidophilus (assay: agar dilution MIC assay of anaerobic bacteria). Conditions: Lactobacillus acidophilus, Micromyx Number 0681, Table 1.
Type: cell-based
Experimental: (§1) Each compound was assayed against a panel of anaerobic bacteria in culture, consisting of Gram-positive organisms, such as Lactobacilli, Bifidobacteria, Clostridium spp., and Gram-negative bacteria, such as […] fragilis spp., according to guidelines of the Clinical and Laboratory Standards Institute (CLSI document M11-A7, CLSI, Wayne, Pa., 2007). […] One tenth mL of diluted bacteria containing 500-1000 colony-forming units (CFU) was plated and spread, and the plates incubated at 37° C. for 24-48 hours. MIC (minimum inhibitory concentration) is equivalent to the lowest concentration in μg/ml at which growth, i.e., colony formation, is not observed. […] Bacteria were assayed using a reference agar dilution method. Drug dilutions and drug-supplemented agar plates were prepared manually. The test organisms were maintained frozen at −80° C. The isolates were sub-cultured on Supplemented Brucella Agar (SBA) plates in a Bactron II anaerobic chamber and incubated for 48 hours at 35-36° C. in the Bactron II anaerobe chamber. Following inoculation, the drug-supplemented plates were incubated at 35° C. for 48 hours in the anaerobic environment (5% hydrogen, 5% carbon dioxide, 90% nitrogen) of the Bactron II. The MIC in μg/ml was read per Clinical and Laboratory Standards Institute guidelines.

| Compound | MIC [µg/mL] |
| --- | --- |
| CCc1cc(Nc2cc(=O)n(CCCCO)c(=O)[nH]2)ccc1C [Compound 179E] | 32 (≈ 101 µM) |
| CC(C)C(=O)OCCCCCn1cnc2nc(NCc3ccc(Cl)c(Cl)c3)[nH]c(=O)c21 [Compound 332E] | 8 (≈ 17.2 µM) |

The compounds below were run on Ba. fragilis (assay: agar dilution MIC assay of anaerobic bacteria). Conditions: Bacteroides fragilis, B. fragilis, Micromyx Number 0123 (ATCC strain), Table 2.
Type: cell-based
Experimental: as §1

| Compound | MIC [µg/mL] |
| --- | --- |
| CC(C)C(=O)OCCCCCn1cnc2nc(NCc3ccc(Cl)c(Cl)c3)[nH]c(=O)c21 [Compound 332E] | > 32 |

Same assay, conditions: Bacteroides fragilis, Ba. fragilis, Micromyx Number 0123 (ATCC strain), Gram negative, Table 1

| Compound | MIC [µg/mL] |
| --- | --- |
| CCc1cc(Nc2cc(=O)n(CCCCO)c(=O)[nH]2)ccc1C [Compound 179E] | > 32 |
| CC(C)C(=O)OCCCCCn1cnc2nc(NCc3ccc(Cl)c(Cl)c3)[nH]c(=O)c21 [Compound 332E] | > 32 |

The compounds below were run on L. casei (assay: agar dilution MIC assay of anaerobic bacteria). Conditions: Lacticaseibacillus casei, Micromyx Number 1722, Table 1.
Type: cell-based, Lactobacillus casei
Experimental: as §1

| Compound | MIC [µg/mL] |
| --- | --- |
| CCc1cc(Nc2cc(=O)n(CCCCO)c(=O)[nH]2)ccc1C [Compound 179E] | 32 (≈ 101 µM) |
| CC(C)C(=O)OCCCCCn1cnc2nc(NCc3ccc(Cl)c(Cl)c3)[nH]c(=O)c21 [Compound 332E] | > 32 |

Each compound was assayed on E. lentum (assay: agar dilution MIC assay of anaerobic bacteria). Conditions: Eggerthella lenta; E. lentum, Micromyx Number 1274, Table 1; read-out: MIC.
Type: cell-based, Eubacterium lentum
Experimental: as §1

| Compound | MIC [µg/mL] |
| --- | --- |
| CCc1cc(Nc2cc(=O)n(CCCCO)c(=O)[nH]2)ccc1C [Compound 179E] | > 32 |
| CC(C)C(=O)OCCCCCn1cnc2nc(NCc3ccc(Cl)c(Cl)c3)[nH]c(=O)c21 [Compound 332E] | 32 (≈ 68.6 µM) |

Each compound was assayed on C. difficile (assay: agar dilution MIC assay of anaerobic bacteria). Conditions: Clostridioides difficile, C. diff., Micromyx Number 3579, Table 2; read-out: MIC.
Type: cell-based, Clostridium difficile
Experimental: as §1

| Compound | MIC [µg/mL] |
| --- | --- |
| CC(C)C(=O)OCCCCCn1cnc2nc(NCc3ccc(Cl)c(Cl)c3)[nH]c(=O)c21 [Compound 332E] | 4 (≈ 8.58 µM) |

Same assay, conditions: Clostridioides difficile, C. diff., Micromyx Number 3580, Table 2; read-out: MIC

| Compound | MIC [µg/mL] |
| --- | --- |
| CC(C)C(=O)OCCCCCn1cnc2nc(NCc3ccc(Cl)c(Cl)c3)[nH]c(=O)c21 [Compound 332E] | 4 (≈ 8.58 µM) |

Same assay, conditions: Clostridioides difficile, C. diff., Micromyx Number 3581, Table 2; read-out: MIC

| Compound | MIC [µg/mL] |
| --- | --- |
| CC(C)C(=O)OCCCCCn1cnc2nc(NCc3ccc(Cl)c(Cl)c3)[nH]c(=O)c21 [Compound 332E] | 2 (≈ 4.29 µM) |

Same assay, conditions: Clostridioides difficile, C. diff., Micromyx Number 3582 (ATCC strain), Table 2; read-out: MIC

| Compound | MIC [µg/mL] |
| --- | --- |
| CC(C)C(=O)OCCCCCn1cnc2nc(NCc3ccc(Cl)c(Cl)c3)[nH]c(=O)c21 [Compound 332E] | 4 (≈ 8.58 µM) |

Same assay, conditions: Clostridioides difficile, C. difficile, Micromyx Number 1209, Table 1; read-out: MIC

| Compound | MIC [µg/mL] |
| --- | --- |
| CCc1cc(Nc2cc(=O)n(CCCCO)c(=O)[nH]2)ccc1C [Compound 179E] | 16 (≈ 50.4 µM) |
| CC(C)C(=O)OCCCCCn1cnc2nc(NCc3ccc(Cl)c(Cl)c3)[nH]c(=O)c21 [Compound 332E] | 4 (≈ 8.58 µM) |

Same assay, conditions: Clostridioides difficile, C. difficile, Micromyx Number 3579, Table 1; read-out: MIC

| Compound | MIC [µg/mL] |
| --- | --- |
| CCc1cc(Nc2cc(=O)n(CCCCO)c(=O)[nH]2)ccc1C [Compound 179E] | 16 (≈ 50.4 µM) |
| CC(C)C(=O)OCCCCCn1cnc2nc(NCc3ccc(Cl)c(Cl)c3)[nH]c(=O)c21 [Compound 332E] | 4 (≈ 8.58 µM) |

Same assay, conditions: Clostridioides difficile, C. difficile, Micromyx Number 3580, Table 1; read-out: MIC

| Compound | MIC [µg/mL] |
| --- | --- |
| CCc1cc(Nc2cc(=O)n(CCCCO)c(=O)[nH]2)ccc1C [Compound 179E] | 4 (≈ 12.6 µM) |
| CC(C)C(=O)OCCCCCn1cnc2nc(NCc3ccc(Cl)c(Cl)c3)[nH]c(=O)c21 [Compound 332E] | 4 (≈ 8.58 µM) |

Same assay, conditions: Clostridioides difficile, C. difficile, Micromyx Number 3581, Table 1; read-out: MIC

| Compound | MIC [µg/mL] |
| --- | --- |
| CCc1cc(Nc2cc(=O)n(CCCCO)c(=O)[nH]2)ccc1C [Compound 179E] | 8 (≈ 25.2 µM) |
| CC(C)C(=O)OCCCCCn1cnc2nc(NCc3ccc(Cl)c(Cl)c3)[nH]c(=O)c21 [Compound 332E] | 4 (≈ 8.58 µM) |

Same assay, conditions: Clostridioides difficile, C. difficile, Micromyx Number 3582, Table 1; read-out: MIC

| Compound | MIC [µg/mL] |
| --- | --- |
| CCc1cc(Nc2cc(=O)n(CCCCO)c(=O)[nH]2)ccc1C [Compound 179E] | 16 (≈ 50.4 µM) |
| CC(C)C(=O)OCCCCCn1cnc2nc(NCc3ccc(Cl)c(Cl)c3)[nH]c(=O)c21 [Compound 332E] | 16 (≈ 34.3 µM) |

Same assay, conditions: Clostridioides difficile, C. difficile, Micromyx Number 3584, Table 1; read-out: MIC

| Compound | MIC [µg/mL] |
| --- | --- |
| CCc1cc(Nc2cc(=O)n(CCCCO)c(=O)[nH]2)ccc1C [Compound 179E] | 4 (≈ 12.6 µM) |
| CC(C)C(=O)OCCCCCn1cnc2nc(NCc3ccc(Cl)c(Cl)c3)[nH]c(=O)c21 [Compound 332E] | 2 (≈ 4.29 µM) |

Same assay, conditions: Clostridioides difficile, C. difficile, Micromyx Number 3585, Table 1; read-out: MIC

| Compound | MIC [µg/mL] |
| --- | --- |
| CCc1cc(Nc2cc(=O)n(CCCCO)c(=O)[nH]2)ccc1C [Compound 179E] | 16 (≈ 50.4 µM) |
| CC(C)C(=O)OCCCCCn1cnc2nc(NCc3ccc(Cl)c(Cl)c3)[nH]c(=O)c21 [Compound 332E] | 4 (≈ 8.58 µM) |

Same assay, conditions: Clostridioides difficile, C. difficile, Micromyx Number 3586, Table 1; read-out: MIC

| Compound | MIC [µg/mL] |
| --- | --- |
| CCc1cc(Nc2cc(=O)n(CCCCO)c(=O)[nH]2)ccc1C [Compound 179E] | 4 (≈ 12.6 µM) |
| CC(C)C(=O)OCCCCCn1cnc2nc(NCc3ccc(Cl)c(Cl)c3)[nH]c(=O)c21 [Compound 332E] | 2 (≈ 4.29 µM) |

Same assay, conditions: Clostridioides difficile, C. difficile, Micromyx Number 3587, Table 1; read-out: MIC

| Compound | MIC [µg/mL] |
| --- | --- |
| CCc1cc(Nc2cc(=O)n(CCCCO)c(=O)[nH]2)ccc1C [Compound 179E] | 8 (≈ 25.2 µM) |
| CC(C)C(=O)OCCCCCn1cnc2nc(NCc3ccc(Cl)c(Cl)c3)[nH]c(=O)c21 [Compound 332E] | 4 (≈ 8.58 µM) |

Same assay, conditions: Clostridioides difficile, C. difficile, Micromyx Number 3588, Table 1; read-out: MIC

| Compound | MIC [µg/mL] |
| --- | --- |
| CCc1cc(Nc2cc(=O)n(CCCCO)c(=O)[nH]2)ccc1C [Compound 179E] | 1 (≈ 3.15 µM) |
| CC(C)C(=O)OCCCCCn1cnc2nc(NCc3ccc(Cl)c(Cl)c3)[nH]c(=O)c21 [Compound 332E] | 1 (≈ 2.14 µM) |

Same assay, conditions: Clostridioides difficile, C. difficile, Micromyx Number 3589, Table 1; read-out: MIC

| Compound | MIC [µg/mL] |
| --- | --- |
| CCc1cc(Nc2cc(=O)n(CCCCO)c(=O)[nH]2)ccc1C [Compound 179E] | 16 (≈ 50.4 µM) |
| CC(C)C(=O)OCCCCCn1cnc2nc(NCc3ccc(Cl)c(Cl)c3)[nH]c(=O)c21 [Compound 332E] | 4 (≈ 8.58 µM) |

Same assay, conditions: Clostridioides difficile, C. difficile, Micromyx Number 3590, Table 1; read-out: MIC

| Compound | MIC [µg/mL] |
| --- | --- |
| CCc1cc(Nc2cc(=O)n(CCCCO)c(=O)[nH]2)ccc1C [Compound 179E] | 8 (≈ 25.2 µM) |
| CC(C)C(=O)OCCCCCn1cnc2nc(NCc3ccc(Cl)c(Cl)c3)[nH]c(=O)c21 [Compound 332E] | 4 (≈ 8.58 µM) |

Same assay, conditions: Clostridioides difficile, C. difficile, Micromyx Number 3591, Table 1; read-out: MIC

| Compound | MIC [µg/mL] |
| --- | --- |
| CCc1cc(Nc2cc(=O)n(CCCCO)c(=O)[nH]2)ccc1C [Compound 179E] | 8 (≈ 25.2 µM) |
| CC(C)C(=O)OCCCCCn1cnc2nc(NCc3ccc(Cl)c(Cl)c3)[nH]c(=O)c21 [Compound 332E] | 4 (≈ 8.58 µM) |

Same assay, conditions: Clostridioides difficile, C. difficile, Micromyx Number 3593, Table 1; read-out: MIC

| Compound | MIC [µg/mL] |
| --- | --- |
| CCc1cc(Nc2cc(=O)n(CCCCO)c(=O)[nH]2)ccc1C [Compound 179E] | 16 (≈ 50.4 µM) |
| CC(C)C(=O)OCCCCCn1cnc2nc(NCc3ccc(Cl)c(Cl)c3)[nH]c(=O)c21 [Compound 332E] | 4 (≈ 8.58 µM) |

Same assay, conditions: Clostridioides difficile, C. difficile, Micromyx Number 3594, Table 1; read-out: MIC

| Compound | MIC [µg/mL] |
| --- | --- |
| CCc1cc(Nc2cc(=O)n(CCCCO)c(=O)[nH]2)ccc1C [Compound 179E] | 4 (≈ 12.6 µM) |
| CC(C)C(=O)OCCCCCn1cnc2nc(NCc3ccc(Cl)c(Cl)c3)[nH]c(=O)c21 [Compound 332E] | 4 (≈ 8.58 µM) |

Same assay, conditions: Clostridioides difficile, C. difficile, Micromyx Number 3595, Table 1; read-out: MIC

| Compound | MIC [µg/mL] |
| --- | --- |
| CCc1cc(Nc2cc(=O)n(CCCCO)c(=O)[nH]2)ccc1C [Compound 179E] | 4 (≈ 12.6 µM) |
| CC(C)C(=O)OCCCCCn1cnc2nc(NCc3ccc(Cl)c(Cl)c3)[nH]c(=O)c21 [Compound 332E] | 4 (≈ 8.58 µM) |

Same assay, conditions: Clostridioides difficile, C. difficile, Micromyx Number 4381 (ATCC strain), Table 1; read-out: MIC

| Compound | MIC [µg/mL] |
| --- | --- |
| CCc1cc(Nc2cc(=O)n(CCCCO)c(=O)[nH]2)ccc1C [Compound 179E] | 4 (≈ 12.6 µM) |
| CC(C)C(=O)OCCCCCn1cnc2nc(NCc3ccc(Cl)c(Cl)c3)[nH]c(=O)c21 [Compound 332E] | 2 (≈ 4.29 µM) |

Same assay, conditions: summary of MIC panels, Tables 1 and 3

| Compound | potency and selectivity against C. diff. versus other Gram-positive anaerobes (in words) |
| --- | --- |
| CC(C)C(=O)OCCCCCn1cnc2nc(NCc3ccc(Cl)c(Cl)c3)[nH]c(=O)c21 [Compound 332E] | most potent and selective |

These compounds were tested on Bi. longum (assay: agar dilution MIC assay of anaerobic bacteria). Conditions: Bifidobacterium longum; Bi. longum, Micromyx Number 3968, Table 1; read-out: MIC.
Type: cell-based, Bifidobacterium longum
Experimental: as §1

| Compound | MIC [µg/mL] |
| --- | --- |
| CCc1cc(Nc2cc(=O)n(CCCCO)c(=O)[nH]2)ccc1C [Compound 179E] | > 32 |
| CC(C)C(=O)OCCCCCn1cnc2nc(NCc3ccc(Cl)c(Cl)c3)[nH]c(=O)c21 [Compound 332E] | > 32 |

Each compound was assayed on Bi. brevi (assay: agar dilution MIC assay of anaerobic bacteria). Conditions: Bifidobacterium; Bi. brevi, Micromyx Number 3967, Table 1.
Type: cell-based, Bifidobacterium brevi
Experimental: as §1

| Compound | MIC [µg/mL] |
| --- | --- |
| CCc1cc(Nc2cc(=O)n(CCCCO)c(=O)[nH]2)ccc1C [Compound 179E] | > 32 |
| CC(C)C(=O)OCCCCCn1cnc2nc(NCc3ccc(Cl)c(Cl)c3)[nH]c(=O)c21 [Compound 332E] | 32 (≈ 68.6 µM) |
